Read-outs that look alike come from different tables or passages of the source.
Test: Phase 1 four-period crossover study of relative bioavailability and food effect, Compound 1 Capsules vs Oral Solution, plasma PK
Assay type: in vivo, human
Conditions: for AUC(0-inf) / AUC(0-t) / Cmax / half-life / Tmax: human, po; for AUC(0-inf) / AUC(0-t) / Cmax / half-life / Tmax / AUC0-inf, geometric mean / AUC0-t, geometric mean / Cmax, geometric mean: plasma, healthy subjects; for AUC(0-inf) / AUC(0-t) / Cmax / half-life / Tmax / AUC0-inf geometric mean ratio (GMR) Test/Reference / AUC0-t geometric mean ratio (GMR) Test/Reference / Cmax geometric mean ratio (GMR) Test/Reference: 30 mg; for Tmax: read-out: tmax, median
Description: In a Phase 1, single-center, open-label, four-period, two-sequence crossover study, Compound 1 capsules were evaluated for safety, tolerability, and relative bioavailability. Twelve (12) subjects completed all four periods of the study; subjects who replaced discontinued subjects were allocated to the same randomization sequence as those discontinued. Up to 24 subjects were recruited into the study.
This study consisted of four periods:
Period 1: Subjects (N=20) were randomized on a 1:1 basis to receive a single 30-mg dose of Compound 1 Capsules or a single 30-mg dose of Compound 1 Oral Solution on Day 1. Study drug was administered in the fasting state. Subjects were confined to the inpatient facility from Day −1 until they were discharged on Day 3.
On Day 8, study drug was administered in the fasting state. Subjects were confined to the inpatient facility from Day 7 until they were discharged on Day 10.
Period 3: Food Effect (high fat): All subjects received a single 30 mg dose of Compound 1 Capsules on Day 15. Study drug was administered after a high-fat meal. Subjects were confined to the inpatient facility from Day 14 until they were discharged on Day 17.
Period 4: Food Effect (standard): All subjects received a single 30 mg dose of Compound 1 Capsules on Day 22. Study drug was administered after a standard meal. Subjects were confined to the inpatient facility from Day 21 until they were discharged on Day 24.
Subjects were admitted on the day before the dose was scheduled to be administered (i.e., on Day −1, Day 7, Day 14 and Day 21) in order to undergo the predose assessments.
The Compound 1 Capsules dose was administered as two capsules with 8 ounces (240 mL) of water; both capsules were to be swallowed as quickly as possible. Compound 1 Oral Solution was prepared as approximately 40 mL, to be swallowed all at once, followed by approximately 200 mL of water that was used to rinse the dosing bottle approximately five times. The time of swallowing the initial 40 mL solution or capsules was the time zero for all assessments.
Subjects were not allowed to consume water for 1 hour before and after dosing, except for water consumed during dosing. After 1 hour postdose, water was allowed ad libitum. Subjects were required to fast overnight (minimum of 10 hours) prior to the scheduled dosing. In periods 1 and 2, subjects were administered a standard meal 4 or more hours after the dose was administered.
(§1) In period 3 (food effect high-fat meal), subjects were administered a high-fat meal 30 minutes prior to administration of the Compound 1 Capsules. Subjects should have eaten this meal in 30 minutes or less, and the Compound 1 dose was administered 30 minutes after the start of the meal. No other food was allowed for at least 4 hours postdose.
as §1, with “period 4” for “period 3”, “effect standard” for “effect high-fat”, “a standard” for “a high-fat”, “after” for “after the”
Plasma samples were collected for PK analysis of Compound 1 at the following sampling times relative to dosing in each period: predose on Day 1 and at 15 and 30 minutes and 1, 1.5, 2, 3, 4, 6, 8, 10, 12, 16, 24 (Day 2), and 48 (Day 3) hours postdose.
The plasma samples were kept frozen at approximately −70 to −80° C. until analyzed. They were packed as directed to avoid breakage during transit and with sufficient dry ice to prevent thawing for at least 72 hours. A specimen-identification form or equivalent was completed and sent to the laboratory with each set of samples.
Bioanalyses of plasma samples for the determination of Compound 1 were conducted utilizing validated LC-MS/MS methods at Agilux Laboratories, Worcester, MA.
The BLQ values between evaluable concentrations and the terminal BLQ values were set to ‘missing’. […]

[1] = single 30 mg oral dose, Capsules, fed [high-fat meal]
[2] = single 30 mg oral dose, Capsules, fed [standard meal]
[3] = single 30-mg oral dose, Capsules, fasted
[4] = single 30-mg oral dose, Oral Solution, fasted
[5] = test Fasted Capsules / reference Fasted Solution
[6] = test Fed Capsules [Standard meal] / reference Fasted Capsules
[7] = test Fed Capsules [Standard meal] / reference Fasted Solution
[8] = test Fed Capsules [high-fat meal] / reference Fasted Capsules
[9] = test Fed Capsules [high-fat meal] / reference Fasted Solution

`C[C@@]1(O)CC[C@H]2[C@H](CC[C@@H]3[C@@H]2CC[C@]2(C)[C@@H](C(=O)Cn4cc(C#N)cn4)CC[C@@H]32)C1` [Compound 1, 1-(2-((3R,5R,8R,9R,10S,13S,14S,17S)-3-hydroxy-3,13-dimethylhexadecahydro-1H-cyclopenta[a]phenanthren-17-yl)-2-oxoethyl)-1H-pyrazole-4-carbonitrile] showed an AUC(0-inf) (single 30 mg oral dose, Capsules, fed [high-fat meal], read-out: AUC0-inf, arithmetic mean) of 896 ng·h/mL, an AUC(0-inf) (single 30 mg oral dose, Capsules, fed [high-fat meal], read-out: AUC0-inf, geometric mean) of 867 ng·h/mL and an AUC(0-inf) (single 30 mg oral dose, Capsules, fed [high-fat meal], read-out: AUC0-inf, median) of 878 ng·h/mL. The AUC(0-t) (single 30 mg oral dose, Capsules, fed [high-fat meal], read-out: AUC0-t, arithmetic mean) was 846 ng·h/mL, the AUC(0-t) (single 30 mg oral dose, Capsules, fed [high-fat meal], read-out: AUC0-t, geometric mean) was 834 ng·h/mL and the AUC(0-t) (single 30 mg oral dose, Capsules, fed [high-fat meal], read-out: AUC0-t, median) was 822 ng·h/mL. For the same compound, the Cmax (single 30 mg oral dose, Capsules, fed [high-fat meal], read-out: Cmax, arithmetic mean) was 64.4 ng/mL, the Cmax (single 30 mg oral dose, Capsules, fed [high-fat meal], read-out: Cmax, geometric mean) was 62.8 ng/mL and the Cmax (single 30 mg oral dose, Capsules, fed [high-fat meal], read-out: Cmax, median) was 66.3 ng/mL. For the same compound, the half-life (single 30 mg oral dose, Capsules, fed [high-fat meal], read-out: t1/2, arithmetic mean (converted)) was 12.9 h, the half-life (single 30 mg oral dose, Capsules, fed [high-fat meal], read-out: t1/2, median (converted)) was 12.7 h and the Tmax [1] was 5.97 h. The AUC(0-inf) (single 30 mg oral dose, Capsules, fed [standard meal], read-out: AUC0-inf, arithmetic mean) was 1020 ng·h/mL, the AUC(0-inf) (single 30 mg oral dose, Capsules, fed [standard meal], read-out: AUC0-inf, geometric mean) was 1010 ng·h/mL and the AUC(0-inf) (single 30 mg oral dose, Capsules, fed [standard meal], read-out: AUC0-inf, median) was 1060 ng·h/mL. For the same compound, the AUC(0-t) (single 30 mg oral dose, Capsules, fed [standard meal], read-out: AUC0-t, arithmetic mean) was 852 ng·h/mL, the AUC(0-t) (single 30 mg oral dose, Capsules, fed [standard meal], read-out: AUC0-t, geometric mean) was 838 ng·h/mL and the AUC(0-t) (single 30 mg oral dose, Capsules, fed [standard meal], read-out: AUC0-t, median) was 881 ng·h/mL. For the same compound, the Cmax (single 30 mg oral dose, Capsules, fed [standard meal], read-out: Cmax, arithmetic mean) was 65.2 ng/mL, the Cmax (single 30 mg oral dose, Capsules, fed [standard meal], read-out: Cmax, geometric mean) was 63.1 ng/mL and the Cmax (single 30 mg oral dose, Capsules, fed [standard meal], read-out: Cmax, median) was 63.2 ng/mL. It also gave a half-life (single 30 mg oral dose, Capsules, fed [standard meal], read-out: t1/2, arithmetic mean (converted)) of 14.9 h, a half-life (single 30 mg oral dose, Capsules, fed [standard meal], read-out: t1/2, median (converted)) of 15.8 h and a Tmax [2] of 4 h. For the same compound, the AUC(0-inf) (single 30-mg oral dose, Capsules, fasted, read-out: AUC0-inf, arithmetic mean) was 642 ng·h/mL, the AUC(0-inf) (single 30-mg oral dose, Capsules, fasted, read-out: AUC0-inf, geometric mean) was 640 ng·h/mL and the AUC(0-inf) (single 30-mg oral dose, Capsules, fasted, read-out: AUC0-inf, median) was 650 ng·h/mL. It also gave an AUC(0-t) (single 30-mg oral dose, Capsules, fasted, read-out: AUC0-t, arithmetic mean) of 544 ng·h/mL, an AUC(0-t) (single 30-mg oral dose, Capsules, fasted, read-out: AUC0-t, geometric mean) of 530 ng·h/mL and an AUC(0-t) (single 30-mg oral dose, Capsules, fasted, read-out: AUC0-t, median) of 552 ng·h/mL. The Cmax (single 30-mg oral dose, Capsules, fasted, read-out: Cmax, arithmetic mean) was 23 ng/mL, the Cmax (single 30-mg oral dose, Capsules, fasted, read-out: Cmax, geometric mean) was 21.8 ng/mL and the Cmax (single 30-mg oral dose, Capsules, fasted, read-out: Cmax, median) was 20.4 ng/mL. The half-life (single 30-mg oral dose, Capsules, fasted, read-out: t1/2, arithmetic mean (converted)) was 15.6 h, the half-life (single 30-mg oral dose, Capsules, fasted, read-out: t1/2, median (converted)) was 15.7 h and the Tmax [3] was 4.02 h. For the same compound, the AUC(0-inf) (single 30-mg oral dose, Oral Solution, fasted, read-out: AUC0-inf, arithmetic mean) was 798 ng·h/mL, the AUC(0-inf) (single 30-mg oral dose, Oral Solution, fasted, read-out: AUC0-inf, geometric mean) was 770 ng·h/mL and the AUC(0-inf) (single 30-mg oral dose, Oral Solution, fasted, read-out: AUC0-inf, median) was 816 ng·h/mL. The AUC(0-t) (single 30-mg oral dose, Oral Solution, fasted, read-out: AUC0-t, arithmetic mean) was 795 ng·h/mL, the AUC(0-t) (single 30-mg oral dose, Oral Solution, fasted, read-out: AUC0-t, geometric mean) was 776 ng·h/mL and the AUC(0-t) (single 30-mg oral dose, Oral Solution, fasted, read-out: AUC0-t, median) was 788 ng·h/mL. The Cmax (single 30-mg oral dose, Oral Solution, fasted, read-out: Cmax, arithmetic mean) was 120 ng/mL, the Cmax (single 30-mg oral dose, Oral Solution, fasted, read-out: Cmax, geometric mean) was 114 ng/mL and the Cmax (single 30-mg oral dose, Oral Solution, fasted, read-out: Cmax, median) was 115 ng/mL. It also gave a half-life (single 30-mg oral dose, Oral Solution, fasted, read-out: t1/2, arithmetic mean (converted)) of 13.5 h, a half-life (single 30-mg oral dose, Oral Solution, fasted, read-out: t1/2, median (converted)) of 13.3 h and a Tmax [4] of 1 h. For the same compound, the “AUC0-inf, geometric mean” value [1] was 866.90 ng·h/mL, the “AUC0-t, geometric mean” value [1] was 834.06 ng·h/mL and the “AUC0-inf, geometric mean” value [2] was 1013.04 ng·h/mL. The “AUC0-t, geometric mean” value [2] was 837.55 ng·h/mL, the “Cmax, geometric mean” value [2] was 63.12 ng/mL and the “AUC0-inf, geometric mean” value [3] was 639.69 ng·h/mL. For the same compound, the “AUC0-t, geometric mean” value [3] was 529.62 ng·h/mL, the “Cmax, geometric mean” value [3] was 21.81 ng/mL and the “AUC0-inf, geometric mean” value [4] was 770.31 ng·h/mL. For the same compound, the “AUC0-t, geometric mean” value [4] was 776.27 ng·h/mL, the “AUC0-inf geometric mean ratio (GMR) Test/Reference” value [5] was 0.830 and the “AUC0-t geometric mean ratio (GMR) Test/Reference” value [5] was 0.682. The “Cmax geometric mean ratio (GMR) Test/Reference” value [5] was 0.191, the “AUC0-inf geometric mean ratio (GMR) Test/Reference” value [6] was 1.584 and the “AUC0-t geometric mean ratio (GMR) Test/Reference” value [6] was 1.581. For the same compound, the “Cmax geometric mean ratio (GMR) Test/Reference” value [6] was 2.894, the “AUC0-inf geometric mean ratio (GMR) Test/Reference” value [7] was 1.315 and the “AUC0-t geometric mean ratio (GMR) Test/Reference” value [7] was 1.079. For the same compound, the “Cmax geometric mean ratio (GMR) Test/Reference” value [7] was 0.552, the “AUC0-inf geometric mean ratio (GMR) Test/Reference” value [8] was 1.355 and the “AUC0-t geometric mean ratio (GMR) Test/Reference” value [8] was 1.575. The “Cmax geometric mean ratio (GMR) Test/Reference” value [8] was 2.879, the “AUC0-inf geometric mean ratio (GMR) Test/Reference” value [9] was 1.125 and the “AUC0-t geometric mean ratio (GMR) Test/Reference” value [9] was 1.074. The “Cmax geometric mean ratio (GMR) Test/Reference” value [9] was 0.549.

From US20230310459A1, “NEUROACTIVE STEROIDS AND THEIR METHODS OF USE” (Sage Therapeutics, Inc., priority 2017, published 2023)
